Reference: patent US11292788B2, “IL-17 and IFN-gamma inhibition for the treatment of autoimmune diseases and chronic inflammation” (Immunic AG, priority 2017, dated 2022)
Values after ≈ are worked out from the molar mass of the structure shown. Read-outs that look alike come from different tables or passages of the source.

How the values were obtained:
[1] = Aqueous solubility in 50 mM phosphate buffer (HPLC/DAD); assay type: physicochemical; settings: 50 mM phosphate buffer, 23 °C, pH 7.4, aqueous buffer, kinetic from dmso stock, aqueous solubility class; read-out: aq. solub.
Description: To achieve this, the samples (final volume 500 μl, 200 μM compound concentration) were incubated for 24 hours at 23° C. under continuous shaking at 1400 rpm (Thermomixer, Eppendorf) in aqueous phosphate buffers (pH 4.0, 6.0, 7.4 and 9.0) with a final DMSO concentration of 1%. To separate the undissolved compound from the solution, the samples were centrifuged (30 min 18000 g at 23° C.). Supernatants were measured via HPLC equipped with a UV detector and concentrations were calculated according to signals of a standard curve. The standard curve was prepared by diluting a stock solution of each compound (c=0.1 mg/ml; received by adding 10 μl of 20 mM compound in DMSO to 914 μl MeCN) in a certain amount of MeCN to cover a range of 0.1 to 200 μg/ml.

[2] = Microsomal stability: incubation with human liver microsomes, residual parent compound by HPLC-MS/MS; assay type: in vitro ADME; settings: up to 60 min, read-out: t1/2 hLM
Description: Metabolic stability of compounds of the present invention was determined by incubation with human liver microsomes and subsequent determination of residual amount of the respective compound (“parent compound”) by HPLC-MS/MS.
In order to achieve this, in a final reaction volume of 1000 μl, each compound was incubated at a final concentration of 1 μM with 0.5 mg/ml human liver microsomes (HLM Pool 50 Donors, 20 mg/ml, BD Gentest, #452156, LotNr 88114) in 0.1 M Potassium phosphate buffer at pH 7.4, with a cofactor in form of a NADPH regenerating system (Promega, #V9510) according to the manufacturers' specifications. The final DMSO concentration in each sample was 0.4%. The incubation was performed at 37° C. under shaking conditions (Thermomixer, 1400 rpm) for different time intervals up to 60 min. To stop the reaction, for each time point 200 μl of the reaction were taken out and 200 μl ice-cold acetonitrile was added. Then, the samples were centrifuged (4° C., 14000*g for 15 min). The supernatant was analyzed for residual parent compound concentration and scanned for metabolites using HPLC-MS/MS. By using optimized MS methods for each compound, the peak area under curve for the compound specific signal is determined. The change of the peak areas over the assay time of 60 min resemble the remaining parent compound in % of T0. By these points, a balancing line was set. The half-time, as well as the clearance, can then be calculated on the basis of the slope.

INF-γ = assay: Cytokine assay: INF-γ production by human PBMC stimulated with PHA; assay type: cell-based; settings: Homo sapiens, PBMC, IC50 class, read-out: IFN-gamma Inhib.
Outline: (§1)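 Compounds were titrated semilogarithmically for IC50, or screened at 10, 1, 0.1 and 0.01 μM, on healthy-donor PBMC stimulated for 48 h with 2 μg/ml PHA at 1×10^5 cells/well. Cytokines in culture supernatants were then quantified by ELISA or Luminex bead assay.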

IL-17A = assay: Cytokine assay: IL-17A production by human PBMC stimulated with PHA; assay type: cell-based; settings: IC50 class, read-out: IL-17A Inhib.
Outline: as §1

IL-17F = assay: Cytokine assay: IL-17F production by human PBMC stimulated with PHA; assay type: cell-based; settings: IC50 class, read-out: IL-17F Inhib.
Outline: as §1

[3] = human liver microsomes 0.5 mg/ml, compound 1 μM, pH 7.4, 37° C.
[4] = pH 7.4, human liver microsomes, 1 μM compound, 0.5 mg/ml HLM, 37° C.

Row | Compound | solubility at 24 h [1] | half-life at 1 μM [2, 3] | IC50 (INF-γ) | IC50 (IL-17A; Homo sapiens, PBMC) | IC50 (IL-17F; Homo sapiens, PBMC) | IC50 (IL-17A) | IC50 (IL-17F) | half-life at 1 μM [2, 4]
1 | C[C@]1(O)C[C@H](n2ncc(-c3onc(-c4c(F)cccc4Cl)c3C(=O)OC3CC3)c2C(F)(F)F)C1 [Example 51, cyclopropyl 3-(2-chloro-6-fluorophenyl)-5-{1-[3-hydroxy-3-methylcyclobutyl]-5-(trifluoromethyl)-1H-pyrazol-4-yl}-1,2-oxazole-4-carboxylate] | 3 to 9.99 µM (≈ 1.5 to 4.99 µg/mL) | 40 to 100 min | – | – | – | 50 to 500 nM | < 50 nM | –
2 | COCc1c(-c2c(F)cccc2Cl)noc1-c1cnn(CC(C)(C)O)c1C(F)(F)F [Example 65, 1-(4-(3-(2-chloro-6-fluorophenyl)-4-(methoxymethyl)isoxazol-5-yl)-5-(trifluoromethyl)-1H-pyrazol-1-yl)-2-methylpropan-2-ol] | > 10 µM | – | 500 to 5000 nM | 500 to 5000 nM | 500 to 5000 nM | – | – | –
3 | CCN(CC)CCOc1cccc(-c2noc(-c3cnn(CCC(C)(C)O)c3C)c2-c2ncccn2)c1Cl [Example 144, 4-[4-(3-{2-chloro-3-[2-(diethylamino)ethoxy]phenyl}-4-(pyrimidin-2-yl)-1,2-oxazol-5-yl)-5-methyl-1H-pyrazol-1-yl]-2-methylbutan-2-ol] | > 10 µM | – | 50 to 500 nM | 500 to 5000 nM | 500 to 5000 nM | – | – | –
4 | Cc1c(-c2onc(-c3cccc(OCCN(C)C)c3Cl)c2-c2ncccn2)cnn1CCC(C)(C)O [Example 145, 4-[4-(3-{2-chloro-3-[2-(dimethylamino)ethoxy]phenyl}-4-(pyrimidin-2-yl)-1,2-oxazol-5-yl)-5-methyl-1H-pyrazol-1-yl]-2-methylbutan-2-ol] | – | – | 50 to 500 nM | 500 to 5000 nM | 500 to 5000 nM | – | – | > 100 min
5 | Cc1c(-c2onc(-c3cccc(OCCN4CCCC4)c3Cl)c2-c2ncccn2)cnn1CCC(C)(C)O [Example 146, 4-[4-(3-{2-chloro-3-[2-(pyrrolidin-1-yl)ethoxy]phenyl}-4-(pyrimidin-2-yl)-1,2-oxazol-5-yl)-5-methyl-1H-pyrazol-1-yl]-2-methylbutan-2-ol] | – | – | 50 to 500 nM | 50 to 500 nM | 500 to 5000 nM | – | – | > 100 min
6 | COCc1c(-c2cccc(OCCN(C)C)c2Cl)noc1-c1cnn([C@H]2C[C@@](C)(O)C2)c1C(F)(F)F [Example 151, 3-[4-(3-{2-chloro-3-[2-(dimethylamino)ethoxy]phenyl}-4-(methoxymethyl)-1,2-oxazol-5-yl)-5-(trifluoromethyl)-1H-pyrazol-1-yl]-1-methylcyclobutan-1-ol] | – | – | 50 to 500 nM | 50 to 500 nM | 50 to 500 nM | – | – | > 100 min
7 | COCc1c(-c2cccc(OCCN3CCOCC3)c2Cl)noc1-c1cnn([C@H]2C[C@](C)(O)C2)c1C(F)(F)F [Example 152, 3-[4-(3-{2-chloro-3-[2-(morpholin-4-yl)ethoxy]phenyl}-4-(methoxymethyl)-1,2-oxazol-5-yl)-5-(trifluoromethyl)-1H-pyrazol-1-yl]-1-methylcyclobutan-1-ol] | – | – | 50 to 500 nM | 50 to 500 nM | 50 to 500 nM | – | – | 2 to 9.99 min
8 | COCc1c(-c2cccc(OCCN(C)C)c2Cl)noc1-c1cnn([C@H]2C[C@](C)(O)C2)c1C(F)(F)F [Example 153, 3-[4-(3-{2-chloro-3-[2-(dimethylamino)ethoxy]phenyl}-4-(methoxymethyl)-1,2-oxazol-5-yl)-5-(trifluoromethyl)-1H-pyrazol-1-yl]-1-methylcyclobutan-1-ol] | – | – | 500 to 5000 nM | ≥ 5000 nM | 500 to 5000 nM | – | – | > 100 min

Next, values leading:

Row | solubility at 24 h [1] | half-life at 1 μM [2, 3] | IC50 (INF-γ) | IC50 (IL-17A; Homo sapiens, PBMC) | IC50 (IL-17F; Homo sapiens, PBMC) | IC50 (IL-17A) | IC50 (IL-17F) | half-life at 1 μM [2, 4] | Compound
9 | 3 to 9.99 µM (≈ 1.43 to 4.75 µg/mL) | 10 to 40 min | < 50 nM | < 50 nM | < 50 nM | – | – | – | CCOC(=O)c1c(-c2c(F)cccc2Cl)noc1-c1cnn(CC(O)CC)c1C(F)(F)F (racemic) [Example 14, ethyl 3-(2-chloro-6-fluorophenyl)-5-[1-(2-hydroxybutyl)-5-(trifluoromethyl)-1H-pyrazol-4-yl]-1,2-oxazole-4-carboxylate]
10 | 3 to 9.99 µM (≈ 1.55 to 5.15 µg/mL) | 2 to 9.99 min | < 50 nM | < 50 nM | < 50 nM | – | – | – | CCOC(=O)c1c(-c2c(F)cccc2Cl)noc1-c1cnn(CC(O)C(F)(F)F)c1C(F)(F)F (racemic) [Example 15, ethyl 3-(2-chloro-6-fluorophenyl)-5-[1-(3,3,3-trifluoro-2-hydroxypropyl)-5-(trifluoromethyl)-1H-pyrazol-4-yl]-1,2-oxazole-4-carboxylate]
11 | < 1 µM | 40 to 100 min | < 50 nM | < 50 nM | < 50 nM | – | – | – | [2H]C(C)(O)Cn1ncc(-c2onc(-c3c(F)cccc3Cl)c2-c2nccs2)c1C(F)(F)F (racemic) [Example 31, 1-{4-[3-(2-chloro-6-fluorophenyl)-4-(1,3-thiazol-2-yl)-1,2-oxazol-5-yl]-5-(trifluoromethyl)-1H-pyrazol-1-yl}(2-^2H)propan-2-ol]
12 | > 10 µM | 40 to 100 min | < 50 nM | < 50 nM | < 50 nM | – | – | – | [2H]C(C)(O)Cn1ncc(-c2onc(-c3c(F)cccc3Cl)c2C(=O)OCC)c1C(F)(F)F (racemic) [Example 32, ethyl 3-(2-chloro-6-fluorophenyl)-5-{1-[2-hydroxy(2-^2H)propyl]-5-(trifluoromethyl)-1H-pyrazol-4-yl}-1,2-oxazole-4-carboxylate]
13 | > 10 µM | > 100 min | < 50 nM | < 50 nM | < 50 nM | – | – | – | [2H]C(C)(O)Cn1ncc(-c2onc(-c3c(F)cccc3Cl)c2C(=O)OC)c1C(F)(F)F (racemic) [Example 33, methyl 3-(2-chloro-6-fluorophenyl)-5-{1-[2-hydroxy(2-^2H)propyl]-5-(trifluoromethyl)-1H-pyrazol-4-yl}-1,2-oxazole-4-carboxylate]
14 | > 10 µM | – | < 50 nM | 50 to 500 nM | 50 to 500 nM | – | – | – | COCc1c(-c2c(F)cccc2Cl)noc1-c1cnn(C[C@@H](C)O)c1C(F)(F)F [Example 66, (2R)-1-(4-(3-(2-chloro-6-fluorophenyl)-4-(methoxymethyl)isoxazol-5-yl)-5-(trifluoromethyl)-1H-pyrazol-1-yl)propan-2-ol]
15 | – | – | < 50 nM | < 50 nM | < 50 nM | – | – | 2 to 9.99 min | CC(C)(O)CCn1ncc(-c2onc(-c3cccc(OCCCN4CCS(=O)(=O)CC4)c3Cl)c2-c2ncccn2)c1C(F)(F)F [Example 141, 4-[3-(2-chloro-3-{5-[1-(3-hydroxy-3-methylbutyl)-5-(trifluoromethyl)-1H-pyrazol-4-yl]-4-(pyrimidin-2-yl)-1,2-oxazol-3-yl}phenoxy)propyl]-thiomorpholine-1,1-dione]
16 | – | – | < 50 nM | < 50 nM | < 50 nM | – | – | 2 to 9.99 min | COC(=O)c1c(-c2cccc(OCCN3CCOCC3)c2Cl)noc1-c1cnn(C[C@H](C)O)c1C(F)(F)F [Example 148, methyl 3-{2-chloro-3-[2-(morpholin-4-yl)ethoxy]phenyl}-5-{1-[(2S)-2-hydroxypropyl]-5-(trifluoromethyl)-1H-pyrazol-4-yl}-1,2-oxazole-4-carboxylate]
17 | – | – | < 50 nM | < 50 nM | < 50 nM | – | – | 2 to 9.99 min | COCc1c(-c2cccc(OCCN3CCOCC3)c2Cl)noc1-c1cnn([C@H]2C[C@@](C)(O)C2)c1C(F)(F)F [Example 150, 3-[4-(3-{2-chloro-3-[2-(morpholin-4-yl)ethoxy]phenyl}-4-(methoxymethyl)-1,2-oxazol-5-yl)-5-(trifluoromethyl)-1H-pyrazol-1-yl]-1-methylcyclobutan-1-ol]
